Read-outs that look alike come from different tables or passages of the source.
Columns and labels:
[1] = test system: K. pneumoniae 156319 expressing KPC-3; assay: broth microdilution MIC, K. pneumoniae KPC-3; type: cell-based; conditions: Fixed Mero (meropenem) 4 μg/mL
How it was run: (§1)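 First, strains were grown 3-5 hours in CAMHB; then compound dilutions (32 to 0.25 μg/mL final) received a beta-lactam overlay at 4 μg/mL final. Finally, plates were inoculated per CLSI and incubated 16-20 hours at 37° C.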

[2] = test system: K. pneumoniae A-1797 expressing KPC-2 and VIM-4; assay: broth microdilution MIC, K. pneumoniae KPC-2 and VIM-4; type: cell-based; conditions: Fixed Mero (meropenem) 4 μg/mL
How it was run: as §1

[3] = target: T1, VIM-2 metallo β-lactamase (Pseudomonas aeruginosa, UniProt Q9K2N0); assay: β-lactamase enzyme inhibition, VIM-2; type: biochemical; conditions: Nitrocefin 100 μM, 486 nm; 15 min at 37° C. preincubation; read-out: IC50 VIM-2 (Class B)
T1 construct: made in house; host or cells: E. coli BL21(DE3)
How it was run: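 Inhibitor and enzyme sat together 15 min at 37° C before 100 μM nitrocefin (final) was added and 486 nm absorbance read for 10 min. IC50 is the concentration halving initial hydrolysis rate relative to uninhibited wells. Protein came from Q sepharose anion exchange at pH 7.5, repeated to >90% purity.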

OXA-1 β-lactamase = target: T2, OXA-1 β-lactamase (Escherichia coli, UniProt P13661); assay: β-lactamase enzyme inhibition, OXA-1; type: biochemical; conditions: Nitrocefin 100 μM, 486 nm; 15 min at 37° C. preincubation; read-out: IC50 OXA-1 (Class D)
T2 construct: made in house; host or cells: E. coli BL21(DE3)
T2 sequence (P13661 26-276): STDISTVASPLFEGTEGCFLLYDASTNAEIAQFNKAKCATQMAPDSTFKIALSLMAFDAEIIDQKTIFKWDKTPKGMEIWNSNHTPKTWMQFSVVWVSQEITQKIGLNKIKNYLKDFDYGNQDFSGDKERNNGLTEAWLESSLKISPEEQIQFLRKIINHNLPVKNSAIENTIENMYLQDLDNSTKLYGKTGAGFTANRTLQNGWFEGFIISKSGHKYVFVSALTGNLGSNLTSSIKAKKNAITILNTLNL
How it was run: (§2)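 Enzyme + inhibitor, 15 min, 37° C; substrate added, absorbance read 10 min. OXA-1/p99 AmpC: nitrocefin 100 μM final, A486. KPC-2: imipenem, A300. SHV-5: cefotaxime, A260. IC50 = 50% drop in initial hydrolysis rate vs no-inhibitor control.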

KPC-2 β-lactamase = target: T3, KPC-2 β-lactamase (Klebsiella pneumoniae, UniProt Q9F663); assay: β-lactamase enzyme inhibition, KPC-2; type: biochemical
T3 construct: made in house; host or cells: E. coli BL21(DE3)
T3 sequence (Q9F663 25-293, looked up): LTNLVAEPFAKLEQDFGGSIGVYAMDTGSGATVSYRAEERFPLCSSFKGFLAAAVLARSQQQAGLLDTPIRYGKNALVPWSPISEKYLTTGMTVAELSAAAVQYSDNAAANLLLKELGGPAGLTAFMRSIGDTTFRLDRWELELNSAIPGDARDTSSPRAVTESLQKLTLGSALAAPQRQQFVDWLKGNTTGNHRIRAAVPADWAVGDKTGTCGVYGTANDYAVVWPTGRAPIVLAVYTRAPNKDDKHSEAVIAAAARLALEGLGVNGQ
How it was run: as §2

[4] = test system: S. aureus MSSA-7 producing penicillinase PC-1; assay: broth microdilution MIC, S. aureus PC-1; type: cell-based; conditions: for MIC of exemplary compounds in presence of fixed β-lactams, S. aureus MSSA-7 PC-1: Fixed Pip (piperacillin) 4 μg/mL
Description: (§3) To determine the ability of test compounds to potentiate the inhibition of the growth of bacterial strains that produce beta-lactamase enzymes, classic cell based broth microdilution MIC assays were employed. Six bacteria strains producing beta-lactamase enzymes were used: E. coli expressing the Class A Extended Spectrum Beta-Lactamase (ESBL) CTX-M-15, E. cloacae expressing the Class C P99, K. pneumoniae expressing the Class A carbapenemase KPC-3, P. aeruginosa expressing the Class B carbapenemase VIM-2, K pneumoniae expressing the class A carbapenemase KPC-2 and the class B carbapenemase VIM-4, and S. aureus producing the Class A penicillinase PC-1. The assay was conducted in Cation Adjusted Mueller Hinton Broth (CAMHB, BD #212322, BD Diagnostic Systems, Sparks, Md.). Bacteria strains were grown for 3-5 hours in CAMBH broth. Test compounds were added to a microtiter plate in 2-fold serial dilutions in CAMHB in a final concentration range of 32 μg/mL to 0.25 μg/ml. An overlay of CAMHB containing a Beta-lactam was added to the compounds at a final static concentration of 4 μg/ml. […] In addition to the titration of test compounds the MICs of a panel of control beta-lactams is also tested to ensure the strains are behaving consistently from test to test. Once the test compound and antibiotics are added the plates can be inoculated according to CLSI broth microdilution method. After inoculation the plates are incubated for 16-20 hours at 37° C., then the Minimal Inhibitory Concentration (MIC) of the test compound is determined visually.
(§4) Using the methodology described above, examples of the current invention were evaluated for their ability to inhibit the growth of β-lactamase-producing bacteria in the presence of a β-lactam antibiotic.
(§5) Representative results are shown in Table 4 where A represents an MIC of the fixed β-lactam antibiotic in the presence of >32 µg/mL of a β-lactamase inhibitor of exemplary compounds, B represents the MIC in the presence of between 8 and 32 µg/mL of a β-lactamase inhibitor of exemplary compounds, and C represents the MIC in the presence of ≤4 µg/mL of a β-lactamase inhibitor of exemplary compounds. NT=Not Tested.

[5] = test system: P. aeruginosa Ps296 expressing VIM-2; assay: broth microdilution MIC, P. aeruginosa VIM-2; type: cell-based; conditions: Fixed Mero (meropenem) 4 μg/mL
Description: as §3, §4, §5

p99 AmpC β-lactamase = target: T4, p99 AmpC β-lactamase (Enterobacter cloacae, UniProt P05364); assay: β-lactamase enzyme inhibition, p99 AmpC; type: biochemical
T4 construct: made in house; host or cells: E. coli BL21(DE3)
T4 sequence (P05364 21-381): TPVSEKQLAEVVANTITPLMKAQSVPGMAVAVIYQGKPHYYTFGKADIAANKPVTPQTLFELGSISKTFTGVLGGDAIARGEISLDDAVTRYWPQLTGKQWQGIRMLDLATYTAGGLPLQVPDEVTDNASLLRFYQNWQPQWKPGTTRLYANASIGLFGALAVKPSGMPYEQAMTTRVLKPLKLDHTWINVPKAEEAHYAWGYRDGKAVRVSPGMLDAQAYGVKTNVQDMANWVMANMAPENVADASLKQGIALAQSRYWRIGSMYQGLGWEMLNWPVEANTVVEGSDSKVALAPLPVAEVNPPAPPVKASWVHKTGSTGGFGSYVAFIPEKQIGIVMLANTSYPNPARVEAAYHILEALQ
How it was run: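 Inhibitor and enzyme were incubated 15 min at 37°C first. The enzyme was recombinant p99 AmpC, untagged, from E. coli BL21(DE3), purified by ion-exchange and size-exclusion chromatography.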

SHV-5 β-lactamase = target: T5, SHV-5 β-lactamase (Klebsiella pneumoniae, UniProt P0A3M1); assay: β-lactamase enzyme inhibition, SHV-5; type: biochemical
T5 construct: made in house; host or cells: E. coli BL21(DE3)
T5 sequence (P0A3M1 22-286): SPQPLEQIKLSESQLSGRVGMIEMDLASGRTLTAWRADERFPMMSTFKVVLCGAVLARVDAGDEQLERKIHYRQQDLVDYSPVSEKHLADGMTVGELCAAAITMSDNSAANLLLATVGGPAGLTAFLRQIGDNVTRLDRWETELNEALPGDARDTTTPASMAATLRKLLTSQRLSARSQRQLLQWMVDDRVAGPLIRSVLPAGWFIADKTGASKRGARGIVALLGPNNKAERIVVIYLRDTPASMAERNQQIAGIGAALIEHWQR
How it was run: as §2

[6] = test system: E. cloacae 144200 expressing Class C P99 AmpC; assay: broth microdilution MIC, E. cloacae P99; type: cell-based; conditions: Fixed CAZ (ceftazidime) 4 μg/mL
How it was run: as §1

[7] = test system: E. coli ESBL4 expressing CTX-M-15; assay: broth microdilution MIC, E. coli CTX-M-15; type: cell-based; conditions: Fixed CAZ (ceftazidime) 4 μg/mL
How it was run: as §1

[8] = imipenem substrate, 300 nm, 15 min at 37° C. preincubation, read-out: IC50 KPC-2 (Class A)

Row | MIC alone ([4]; partner antibiotic alone, S. aureus producing PC-1) [mg/L] | Structure (SMILES) | MIC of exemplary compounds in presence of fixed β-lactams, K.P. 156319 KPC-3 [1] | MIC of exemplary compounds in presence of fixed β-lactams, K.P. A-1797 KPC-2 VIM-4 [2] | IC50 [3] [µM] | IC50 (OXA-1 β-lactamase) [µM] | IC50 (KPC-2 β-lactamase) [µM] | MIC of exemplary compounds in presence of fixed β-lactams, S. aureus MSSA-7 PC-1 [4] | MIC of exemplary compounds in presence of fixed β-lactams, P. aerug. Ps296 VIM-2 [5] | IC50 (p99 AmpC β-lactamase) [µM] | IC50 (SHV-5 β-lactamase) [µM] | MIC of exemplary compounds in presence of fixed β-lactams, E. cl. 144200 p99 AmpC [6] | MIC of exemplary compounds in presence of fixed β-lactams, E. coli ESBL4 CTX-M-15 [7] | IC50 (KPC-2 β-lactamase; [8]) [µM]
1 |  | CCCC(=O)N[C@H]1Cc2cccc(C(=O)O)c2OB1O [Example 1, (R)-3-Butyrylamino-2-hydroxy-3,4-dihydro-2H-benzo[e][1,2]oxaborinine-8-carboxylic acid] | C (C represents the MIC in the presence of ≤4 g/mL of a β-lactamase inhibitor) | A (A represents an MIC of the fixed β-lactam antibiotic in the presence of >32 g/mL of a β-lactamase inhibitor) | 1 to 10 | < 0.1 | < 0.1 | C (C represents the MIC in the presence of ≤4 g/mL of a β-lactamase inhibitor) | A (A represents an MIC of the fixed β-lactam antibiotic in the presence of >32 g/mL of a β-lactamase inhibitor) | < 0.1 | < 0.1 | C (C represents the MIC in the presence of ≤4 g/mL of a β-lactamase inhibitor) | C (C represents the MIC in the presence of ≤4 g/mL of a β-lactamase inhibitor) | 
2 |  | N#CCC(=O)N[C@H]1Cc2cccc(C(=O)O)c2OB1O [Example 2, (R)-3-(2-Cyano-acetylamino)-2-hydroxy-3,4-dihydro-2H-benzo[e] [1,2]oxaborinine-8-carboxylic acid] | C (C represents the MIC in the presence of ≤4 g/mL of a β-lactamase inhibitor) | C (C represents the MIC in the presence of ≤4 g/mL of a β-lactamase inhibitor) | 1 to 10 | < 0.1 |  | C (C represents the MIC in the presence of ≤4 g/mL of a β-lactamase inhibitor) | B (B represents the MIC in the presence of between 8 and 32 g/mL of a β-lactamase inhibitor) | < 0.1 | < 0.1 | C (C represents the MIC in the presence of ≤4 g/mL of a β-lactamase inhibitor) | C (C represents the MIC in the presence of ≤4 g/mL of a β-lactamase inhibitor) | 0.1 to 1
3 |  | CC(O)(O)C(=O)N[C@H]1Cc2cccc(C(=O)O)c2OB1O [Example 3, (R)-3-(2,2-Dihydroxy-propionylamino)-2-hydroxy-3,4-dihydro-2H-benzo[e][1,2]oxaborinine-8-carboxylic acid] | C (C represents the MIC in the presence of ≤4 g/mL of a β-lactamase inhibitor) | A (A represents an MIC of the fixed β-lactam antibiotic in the presence of >32 g/mL of a β-lactamase inhibitor) | 1 to 10 | < 0.1 |  | C (C represents the MIC in the presence of ≤4 g/mL of a β-lactamase inhibitor) | C (C represents the MIC in the presence of ≤4 g/mL of a β-lactamase inhibitor) | < 0.1 | 0.1 to 1 | C (C represents the MIC in the presence of ≤4 g/mL of a β-lactamase inhibitor) | C (C represents the MIC in the presence of ≤4 g/mL of a β-lactamase inhibitor) | 0.1 to 1
4 |  | O=C(CC(F)(F)F)N[C@H]1Cc2cccc(C(=O)O)c2OB1O [Example 4, (R)-2-Hydroxy-3-(3,3,3-trifluoro-propionylamino)-3,4-dihydro-2H-benzo[e][1,2]oxaborinine-8-carboxylic acid] | C (C represents the MIC in the presence of ≤4 g/mL of a β-lactamase inhibitor) | B (B represents the MIC in the presence of between 8 and 32 g/mL of a β-lactamase inhibitor) | 1 to 10 | < 0.1 |  | C (C represents the MIC in the presence of ≤4 g/mL of a β-lactamase inhibitor) | C (C represents the MIC in the presence of ≤4 g/mL of a β-lactamase inhibitor) | < 0.1 | < 0.1 | C (C represents the MIC in the presence of ≤4 g/mL of a β-lactamase inhibitor) | C (C represents the MIC in the presence of ≤4 g/mL of a β-lactamase inhibitor) | 0.1 to 1
5 |  | O=C(CC(C(F)(F)F)C(F)(F)F)N[C@H]1Cc2cccc(C(=O)O)c2OB1O [Example 9, (R)-2-Hydroxy-3-(4,4,4-trifluoro-3-trifluoromethyl-butyrylamino)-3,4-dihydro-2H-benzo[e][1,2]oxaborinine-8-carboxylicacid] | B (B represents the MIC in the presence of between 8 and 32 g/mL of a β-lactamase inhibitor) | A (A represents an MIC of the fixed β-lactam antibiotic in the presence of >32 g/mL of a β-lactamase inhibitor) | 10 to 100 | 0.1 to 1 |  |  | A (A represents an MIC of the fixed β-lactam antibiotic in the presence of >32 g/mL of a β-lactamase inhibitor) | < 0.1 | < 0.1 | C (C represents the MIC in the presence of ≤4 g/mL of a β-lactamase inhibitor) | B (B represents the MIC in the presence of between 8 and 32 g/mL of a β-lactamase inhibitor) | 0.1 to 1
6 |  | CCC(=O)N[C@H]1Cc2cccc(C(=O)O)c2OB1O [Example 62, (R)-2-Hydroxy-3-propionylamino-3,4-dihydro-2H-benzo[e][1,2]oxaborinine-8-carboxylic acid] | C (C represents the MIC in the presence of ≤4 g/mL of a β-lactamase inhibitor) | B (B represents the MIC in the presence of between 8 and 32 g/mL of a β-lactamase inhibitor) | 1 to 10 | < 0.1 | < 0.1 | C (C represents the MIC in the presence of ≤4 g/mL of a β-lactamase inhibitor) | B (B represents the MIC in the presence of between 8 and 32 g/mL of a β-lactamase inhibitor) |  | 0.1 to 1 | C (C represents the MIC in the presence of ≤4 g/mL of a β-lactamase inhibitor) | C (C represents the MIC in the presence of ≤4 g/mL of a β-lactamase inhibitor) | 
7 | 64 | CCN1CCN(C(=O)N[C@@H](C(=O)N[C@@H]2C(=O)N3[C@@H]2SC(C)(C)[C@@H]3C(=O)O)c2ccccc2)C(=O)C1=O [Piperacillin, piperacillin, reference compound] |  |  |  |  |  |  |  |  |  |  |  | 

Reference: patent publication US11008346B2, “Beta-lactamase inhibitors” (priority 2014, dated 2021)
